Laboratory results: the pKa sets of Baltruschat and Czodrowski (2020)

Structure (SMILES) | pKa (basic group) | pKa (acidic group)
N#Cc1cccnc1 | 1.48 | –
O=C(O)C(c1ccc(-c2ccccc2)cc1)C1(O)CCCC1 (stereo not given) | – | 3.65
c1ccc2c(c1)CCC2N(c1ccc2ccccc2c1)C1CCc2ccccc21 (stereo not given) | 0.25 | –
Sc1cc[nH+]cc1 | – | 1.43
On1nnc2ccc(Cl)cc21 | – | 4.15
Nc1ccc(S(=O)(=O)Nc2ncco2)cc1 | – | 6.5
O=C([O-])C(NCC[NH2+]C(C(=O)[O-])c1ccccc1O)c1ccccc1O (stereo not given) | 6.32 | –
c1cnc2c(c1)ccc1c3c(cnc12)CCC3 | 5.78 | –
O=C(O)c1ccc([N+](=O)[O-])c2cccnc12 | – | 1.41
CCN(CC)S(=O)(=O)c1ccccc1C(=O)O | – | 2.96
CCN1CCCC1C (stereo not given) | 10.6 | –
[NH3+]C(Cc1ccccc1)C(=O)O (stereo not given) | – | 2.3
O=C([O-])c1cc(O)c(O)c(C(=O)O)[o+]1 | – | 1.8
C[Si](C)(C)CC(=O)O | – | 5.22
CC(C)(C)Nc1ccccc1 | 7.15 | –
CCN(CC)N(C)C | 6.88 | –
CNO | 6.05 | –
CN(C)c1ncc(Br)s1 | 3.66 | –
NCC(=O)O | 9.67 | –
Cc1cc([N+](=O)[O-])cc(C)c1N | 0.98 | –
CC(C)S(=O)(=O)n1c(N)nc2ccc(/C(=C/C(N)=O)c3cc(F)ccc3F)cc21 | 3.4 | –
O=[PH]([O-])C(NCc1ccncc1)c1ccccc1O (stereo not given) | 8.05 | 11.9
O=Nc1c(O)ccc2ncsc12 | – | 5.43
c1ccc(-c2ccc3ccc4cccnc4c3n2)cc1 | 4.9 | –

Structure (SMILES) | pKa (basic group) | pKa (acidic group)
CCc1c(O)nn(-c2ccccc2)c1C | – | 12.3
Cc1ccc(C(=O)Oc2ccccc2)c(O)c1 | – | 9.44
O=C(c1ccccc1)c1ccc([O-])[n+](O)c1 | – | 5.13
CCn1cccc(O)c1=O | – | 8.99
NC[C@H](O)C(=O)[O-] | 9.27 | –
CCCCCN | 10.7 | –
CN(C)Cc1cc(C(=O)c2ccccc2)ccc1[O-] | 10.2 | –
OCCN1CCN(CCO)CC1 | – | 7.75
C1CCc2c(nnc3c2CCCC3)C1 | 6.12 | –
COc1cccc(C(=O)NC2CC3CCC(C2)N3Cc2ccccc2)c1OC (stereo not given) | 8.91 | –
Cc1cccc(C2NCCS2)c1 (stereo not given) | 5.26 | –
O=C(O)CC[C@H]1CC[C@H](O)CC1 | – | 4.86
CCc1c(-c2ccccc2)nn(-c2ccccc2)c1O | – | 8
O=C(O)[C@@H]1CSC[NH2+]1 | – | 1.58
O=C([O-])C[NH+](CC(=O)[O-])Cc1cc([N+](=O)[O-])ccc1O | – | 6.18
CCCC(=O)C1(c2cccc(O)c2)CCN(C)CC1 | 8.62 | –
CCc1cc(Cl)c(OC)c(C(=O)NC[C@H]2CCC[NH+]2CC)c1O | – | 6.91
O=C(O)c1sccc1[N+](=O)[O-] | – | 2.68
COc1ccc(CC(C)N)cc1 (stereo not given) | 9.53 | –
O=C([O-])c1ccc(O)cc1 | – | 9.35
Cc1cc(C)n(-c2cc(C)n(C)n2)n1 | 2.19 | –
NS(=O)(=O)c1ccc(Cl)cc1 | – | 9.5
c1ccc(CNC23OC4C5C6CC(C7C6C4C72)C53)cc1 (stereo not given) | 7.07 | –
C[Si](C)(C)OC1CN(C2CCCCC2)C1 | 9.02 | –

Structure (SMILES) | pKa (basic group) | pKa (acidic group)
Cc1ccccc(=O)c1O | – | 7.92
C[Si](C)(C)CCCC(=O)O | – | 4.89
C=C[C@]1(O)C[C@@H](C)N[C@@H]2CCCC[C@H]21 | 9.98 | –
CCN1CCC[C@@H]1CNC(=O)c1c([O-])c(Cl)cc(Cl)c1OC | 9.12 | –
Oc1ccc2nc3ccccc3nc2c1 | 2.6 | 7.45
CO[C@H]1O[C@H](C(=O)O)[C@H](O)[C@H](O)[C@H]1O | – | 3.55
CC(C)NCC(O)c1cccc(N)c1 (stereo not given) | 9.6 | –
[NH3+]NC(=O)c1ccncc1 | 1.85 | –
CCC1=NCCC1 | 7.91 | –
Nc1cccc2[nH]ncc12 | 3.29 | –
COc1cc(S(N)(=O)=O)cc(C(=O)N[C@@H]2C[C@H]3CC[C@@H](C2)N3Cc2ccccc2)c1OC | 8.87 | –
COc1ccc(OC)c(N)c1 | 3.72 | –
C[N+]1(CC(=O)O)CCCCC1 | – | 2.01
C[NH+](C)CCN1C=Nc2cccc3cccc1c23 | 4.64 | –
OCc1cc(-c2ccccc2)nnc1NCCN1CCOCC1 | 6.99 | –
Oc1ccc2c(c1)Cc1ccccc1-2 | – | 9.51
N[C@H]1CCCC[C@@H]1[NH3+] | 6.71 | –
Cn1nccc1N | 4.23 | –
CN(CCO)CCO | 8.51 | –
c1c[nH]c(Cc2nc(Cc3c[nH]cn3)c[nH]2)n1 | 7.26 | –
Brc1ccccn1 | 0.9 | –
[NH3+]CCc1cnc[nH]1 | 6.28 | –
CCOc1cccc(C)c1C(=O)O | – | 3.51
Cc1c(Cl)cc2nnn(O)c2c1[N+](=O)[O-] | – | 3.21

Structure (SMILES) | pKa (basic group) | pKa (acidic group)
CNC[C@H](O)c1cccc(O)c1 | 8.77 | 9.84
Brc1ccc(C2NCCS2)cc1 (stereo not given) | 5.05 | –
CSc1cc2ccccc2cn1 | 3.41 | –
CCN(CC)Cc1ccccc1 | 9.44 | –
CC1CCCC(C)(C)N1 (stereo not given) | 11.3 | –
O=C(O)[C@@H]1O[C@H](Oc2ccc3[nH+]ccc(O)c3c2)[C@@H](O)[C@H](O)[C@H]1O | – | 3.15
CO/C([O-])=N/c1ncnc2nc[nH]c12 | – | 12.1
c1ccc(C2CN3CCC2CC3)cc1 (stereo not given) | 10.2 | –
c1ccc(Nc2ccccc2)cc1 | 0.76 | –
O=C1CC(Sc2ccccc2)N1 (stereo not given) | – | 13.3
Cc1ccc(CN)cc1N | 9.77 | –
CCN(CC)CCCC(C)=O | 10.1 | –
N#Cc1ccc2c(c1)CCN2 | 2.8 | –
O=C([O-])c1ccccc1S | – | 7.6
c1ccc(NC2=NCCCO2)cc1 | 9.33 | –
COc1ccc(S(=O)(=O)CCN2CCOCC2)c(OC)c1OC | 4.89 | –
O=CCCCC(=O)O | – | 5.02
Cn1cc/c(=N\N)c2ccccc21 | 10.6 | –
CCCCCN(CCO)CC(C)O (stereo not given) | 8.9 | –
Cc1ccc(/C=C/C(=O)O)cc1 | – | 4.56
Cc1cc(NS(=O)(=O)c2ccc(N)cc2)nc(C)n1 | – | 7.49
C[N+](C)(C)NC(=O)c1cccc([N+](=O)[O-])c1 | – | 3.16
CC(C)c1ccccc1N | 4.42 | –
Nc1ccc2c(c1Br)CCCC2 | 3.05 | –

Structure (SMILES) | pKa (basic group) | pKa (acidic group)
CSc1ccccc1C(=O)O | – | 3.89
C1CCN2C[C@@H]3C[C@@H](CN4CCCC[C@@H]34)[C@H]2C1 | 11.3 | –
[S-]c1ncc2nc[nH]c2n1 | 7.15 | 10.4
CC(C)(OO)c1ccccc1 | – | 12.6
COC(=O)c1cc(O)c(O)c(O)c1C[NH+](C)C | – | 6.8
CC(=O)CC(=O)Nc1ccc(C)cc1 | – | 10.2
CC1CCCCN1 (stereo not given) | 11 | –
Nc1nc2c(ncn2[C@@H]2C[C@@H](O)[C@H](CO)O2)c(O)[nH+]1 | – | -0.97
Cc1ccc2[nH]cnc2c1 | 5.81 | –
Nc1nnnn1-c1cccc(Cl)c1 | 0.7 | –
Oc1ccccc1I | – | 8.4
Cc1nc2[nH]c(=O)[nH]c(=O)c2[nH]1 | 3.1 | –
CC(C)(C)C(=O)CC(=O)C(C)(C)C | – | 11.8
COc1ccc(S)cc1 | – | 6.76
CCP(=O)(O)CC | – | 3.22
Fc1ccc2[nH]cnc2c1 | 5.11 | –
Nc1nc(N)c2[nH]cnc2n1 | 5.05 | 10.8
CC=O | -0.57 | 16.8
CCCCCCCc1c(-c2ccccc2)n[nH]c1O | – | 9.2
[O-]c1cccc2c1-c1cccc(O)c1-2 | – | 9.97
C[n+]1c([O-])c([O-])nc2ccccc21 | 9.74 | –
CCCCCCCCCCCC[NH2+]CCCN | 8.37 | –
CN(CO)c1ccccc1 | 3.72 | –
Cc1cc(N)nc(N)n1 | 7.65 | –

Structure (SMILES) | pKa (basic group) | pKa (acidic group)
CC(C)(C)N1CCCC(=O)C(O)CCC1 (stereo not given) | 7.6 | –
O=C(O)C[NH+](CC(=O)O)Cc1cc([N+](=O)[O-])ccc1O | – | 2.4
Cc1cnccn1 | 1.42 | –
CN(C)C(C)(C)C=O | 8.4 | –
Cc1cccc(Nc2ccccc2)c1 | 0.92 | –
O=c1ccccc(Br)c1O | – | 5.96
CN(C)CCC/N=C(\c1ccccc1)c1ccccc1Cl | 9 | –
c1ccc(CNc2nnc(-c3ccccc3)s2)cc1 | – | 11.5
C[n+]1ccc(N)nc1[O-] | 4.52 | –
CCN(CC)Cc1cc(C)ccc1O | 8.94 | 10.8
O=C(O)C#CI | – | 2
O=C(CCNCCC(=O)c1ccccc1)c1ccccc1 | 8.69 | –
C[NH+](C)CCCNc1c2ccccc2nc2cccc([N+](=O)[O-])c12 | 6.2 | –
CN1CCCCCC1 | 11 | –
C[NH+](C)CCc1cccc(O)c1 | – | 9.24
[O-]c1ccc(/C=N/O)cc1 | – | 12
Cc1ccc(N)cc1Br | 4.02 | –
Nc1nc2ncncc2[nH]1 | 4.68 | 9.36
Cc1ncncc1N | 3.15 | –
CCCn1cncn1 | 2.36 | –
O=P([O-])([O-])C([NH2+]Cc1cccnc1)c1ccccc1O (stereo not given) | – | 10.2
COc1cc(S(C)=O)ccc1-c1nc2ccnnc2[nH]1 (stereo not given) | 3.63 | 8.7
C[NH+](C)Cc1cc(Cl)ccc1O | – | 8.02
CCN(CC)Cc1cc(F)ccc1O | – | 10.8

Structure (SMILES) | pKa (basic group) | pKa (acidic group)
Cc1cnc(C)cn1 | 1.95 | –
O=C1C(O)=C(Cc2ccccc2)C(=O)c2ccccc21 | – | 4.9
CC(O)CNCC(C)O (stereo not given) | 8.88 | –
Nc1cccc2ncncc12 | 3.57 | –
CC(=O)N(C)O | – | 8.73
COCC1=C(C(=O)O)C2C=CC1C2 (stereo not given) | – | 4.59
CCOc1ccccc1C(=O)O | – | 4.18
COc1ccc2c3c1O[C@H]1[C@@H](O)CC[C@H]4[C@@H](C2)N(C)CC[C@@]341 | 8.71 | –
c1ccc2c(c1)CNCCC[NH2+]Cc1ccccc1OCCCO2 | 7.89 | –
CCCCCC/C=N/O | – | 11.6
O=[N+]([O-])c1cc(O)ccc1[O-] | – | 10.1
CN(O)C(=O)c1ccc([N+](=O)[O-])cc1 | – | 7.92
O=C1C[C@@H]2OCC=C3CN4CC[C@@]56c7ccccc7N1[C@H]5C2[C@@]3(S(=O)(=O)[O-])C[C@H]46 (stereo not given in full) | 7.53 | –
CCCn1ccnc1C | 8.2 | –
CC[NH+](CC)CCOCCN(C)C | 8.4 | –
Cc1cc(Cc2cc(O)ccc2C)c(O)c([N+](=O)[O-])c1 | – | 7.93
O=C(NNc1ccc(Br)cc1)c1ccncc1 | 4.03 | –
CN1C(=S)NC(=O)C12CCCCC2 | – | 9.25
C[C@@H]1N[C@H]1C | 5.33 | –
CC(C)SCCN | 9.23 | –
N[C@@H](Cc1ccccc1)C(=O)[O-] | 9.14 | –
O=C([O-])CNS(=O)(=O)c1ccccc1 | – | 11.4
